This is an account of results in patent US9650616B2, “Methods for increasing grain yield” (University of Florida Research Foundation, Inc., priority 2014, dated 2017).

Molecules are shown by their SMILES. Substitutions are numbered along the chain they refer to.

For assay [1], the target named is T1, maize endosperm AGPase, wild type (Bt2/Sh2) (Zea mays, UniProt P55241+Q84PF5).
T1 sequence (P55241 46-516): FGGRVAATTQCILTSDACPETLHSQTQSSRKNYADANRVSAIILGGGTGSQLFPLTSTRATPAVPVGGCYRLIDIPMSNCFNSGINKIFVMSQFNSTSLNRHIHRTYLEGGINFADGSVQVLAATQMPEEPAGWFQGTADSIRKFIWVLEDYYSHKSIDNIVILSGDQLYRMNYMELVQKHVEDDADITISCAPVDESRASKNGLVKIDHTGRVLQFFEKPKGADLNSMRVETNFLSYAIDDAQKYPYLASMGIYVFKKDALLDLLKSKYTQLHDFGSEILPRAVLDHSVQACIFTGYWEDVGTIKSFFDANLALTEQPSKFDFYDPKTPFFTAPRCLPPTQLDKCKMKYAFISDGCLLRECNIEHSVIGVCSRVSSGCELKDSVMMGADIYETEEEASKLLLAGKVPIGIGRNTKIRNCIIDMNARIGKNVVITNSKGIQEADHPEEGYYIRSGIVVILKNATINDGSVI
T1 sequence (Q84PF5 1-474): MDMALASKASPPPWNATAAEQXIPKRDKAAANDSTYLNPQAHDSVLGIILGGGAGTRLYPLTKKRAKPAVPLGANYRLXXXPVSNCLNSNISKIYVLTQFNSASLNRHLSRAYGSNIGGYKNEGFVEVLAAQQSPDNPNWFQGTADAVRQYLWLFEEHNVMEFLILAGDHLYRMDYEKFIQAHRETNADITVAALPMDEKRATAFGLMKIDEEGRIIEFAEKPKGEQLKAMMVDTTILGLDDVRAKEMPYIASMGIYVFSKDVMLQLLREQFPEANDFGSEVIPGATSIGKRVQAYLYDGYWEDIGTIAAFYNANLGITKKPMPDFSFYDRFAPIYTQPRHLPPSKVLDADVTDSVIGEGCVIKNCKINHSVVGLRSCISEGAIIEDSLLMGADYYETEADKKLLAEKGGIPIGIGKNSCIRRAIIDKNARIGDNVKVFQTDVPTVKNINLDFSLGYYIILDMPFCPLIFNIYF
Briefly: Apparent kinetic constants with 3-PGA, 37° C., wild type. It counts as biochemical. The conditions noted are these: read-out: ATP Km, Wt.
Source text: The small and large subunit plasmids of maize endosperm AGPase (pMONcBt2 and pMONcSh2, respectively) (Giroux et al., 1996) were expressed in E. coli AC70R1-504 cells (Iglesias et al., 1993) as previously described (Boehlein et al., 2008).
An endpoint assay was used to determine the rate of the AGPase reaction by coupling the formation of PPi to a decrease in NADH concentration (Boehlein et al., 2008). […] The Michaelis constants (Km) were obtained by varying one substrate in the presence of saturating concentrations of the second substrate. The activation constants were obtained by varying the activator at fixed levels of both substrates. All reactions were performed at 37° C. and mixes were prewarmed before starting the reaction with enzyme. […] The absorbance at 340 nm was monitored after 30 min and the amount of PPi produced was determined from a standard curve using PPi in complete reaction mixtures lacking AGPase. Blank samples contained complete reaction mixtures without enzyme and the change in absorbance between the blank and the reaction was used to calculate the amount of PPi produced.
The apparent Michaelis constant and maximum velocity of each reaction was calculated from a V vs. S plots using nonlinear regression analysis and the following equation, v=VmaxS/(Km+S), where v is the measured velocity, Vmax is the maximum velocity, S is the substrate concentration. […]

For assay [2], the target named is T2, maize endosperm AGPase, large subunit variant D161G (numbering of SEQ ID NO: 20) (Zea mays, UniProt P55241+Q84PF5, D161G).
T2 sequence (P55241 46-516 D161G): T1 sequence (P55241 46-516) with D116G
T2 sequence (Q84PF5 1-474): T1 sequence (Q84PF5 1-474)
Kind of assay: Kinetic constants in the absence of 3-PGA, D161G. It counts as biochemical. As to the method:
Reactions were performed for 10 min and terminated by boiling. Blank mixtures contained everything except ATP.
Based on the kinetic results (Table 10) and catalytic properties at 55° C. (Table 10) both D161G and GGR were selected for a more detailed kinetic analysis. […] The GGR mutant was primarily chosen based on its increased catalytic rate at 37° C. and high performance at 55° C. Its high activity in the absence of 3-PGA was also paramount. The first kinetic parameters determined were the Michaelis constants, the catalytic rate (kcat) and the dissociation constant (Kia) for the E-ATP complex, in the absence of 3-PGA. […] For the wt maize enzyme, this activator primarily responds by reducing the Km for both substrates, with little effect on the reaction rate (Boehlein et al., 2013). […] The kinetic mechanism established ATP as the first substrate to bind, thus the activator is no longer necessary for this first step. […] This variant also conditions both heat stability and high activity in the absence of an activator.

In assay [3] the test system is maize endosperm AGPase, wild type (Maize-wt). The note with it: absence of 3-PGA, cited from earlier work.
Assay [4] concerns maize endosperm AGPase, wild type. The note with it: Maize wt, presence of 3-PGA, ATP varied, Pi inhibition, P-MT; read-out: Km (ATP); cited from earlier work.
In assay [5] the target is T3, maize endosperm AGPase variant T142F (Zea mays, UniProt P55241+Q84PF5, T142F).
T3 construct: data of Boehlein et al., 2013
T3 sequence (P55241 46-516 T142F): T1 sequence (P55241 46-516) with T97F
T3 sequence (Q84PF5 1-474): T1 sequence (Q84PF5 1-474)
The note with it: cited from earlier work.

In assay [6] the test system is maize endosperm AGPase, evolutionary mutant SH2-E (SH2E). The note with it: absence of 3-PGA, ATP varied, Pi inhibition, NC, read-out: Km (ATP); cited from earlier work.

For orientation: Km means the substrate concentration at which the rate is half of its maximum. As a reminder, the kcat is the number of substrate molecules converted per active site and unit of time at saturation. For the molecule `Nc1ncnc2c1ncn2[C@@H]1O[C@H](COP(=O)(O)OP(=O)(O)OP(=O)(O)O)[C@@H](O)[C@H]1O` [ATP], the Michaelis constant (Km) in assay [1] is 69 µM; in assay [2] (read-out: ATP Km), 43 µM; in assay [3] (apparent Km in the presence of 15 mM G-1-P, read-out: ATP Km (apparent)), 4000 µM; in assay [4] it was 110 µM; in assay [5] (read-out: ATP Km, absence of 3-PGA), 1730 µM; in assay [6] it was 970 µM. The “decrease of Km for ATP compared to wild-type” value in assay [2] is reported as around 100 ×. Further, the kcat in assay [2] (ATP varied at fixed G-1-P) was 48.8 s⁻¹; in assay [3] it was 35.2 s⁻¹; in assay [5] (absence of 3-PGA) it was 53.8 s⁻¹. For the same molecule, the Kd in assay [5] (read-out: Kia (dissociation constant for the E-ATP complex), absence of 3-PGA) is 1500 µM.
